Results reported in patent publication US20250115943A1, “SYSTEM AND METHOD FOR ANTIMICROBIAL SUSCEPTIBILITY TESTING” (priority 2023, published 2025).
In brackets after ≈: the same amount, converted by molar mass. Like-named read-outs stand apart in the source and are kept apart here.

Tests used:
E. coli ATCC 25922 [1] = experiment: reference broth microdilution (rBMD); format: cell-based; conditions: Escherichia coli, ATCC25922, Table 7, geometric mean MIC rounded to nearest 2-fold dilution, n = 3
Method: (§1) Following optimization of the BLAST assay, two other tests were performed in which 12 antibiotics (covering different classes) and 8 bacterial strains (Gram-positive and Gram-negative) were assayed using the same method as described above. Different bacterial strains were tested against different antibiotics and for each pair tested, the BLAST MIC value was compared to the CLSI QC range where available, or to the reference broth microdilution (rBMD) MIC which was determined in parallel with the BLAST assay following the CLSI protocols (see references [9]).
The inoculated urine cultures were incubated overnight at 35+2° C. Each urine culture was centrifuged, and the sediment used to prepare the BLAST inoculum of 5.0×10^5 CFU/mL to start the assay as described in the protocols section. […] The spiked urine samples were tested in parallel with isolates and the resultant BLAST MIC values were compared. In addition to the BLAST test, all the samples were also tested using the reference broth microdilution (rBMD) method and the MIC values were compared.

S. aureus ATCC 29213 [2] = conditions: CLSI M100-Ed34E, cited from earlier work
P. mirabilis LSI 4933 [3] = experiment: reference broth microdilution (rBMD); format: cell-based; conditions: Proteus mirabilis, LSI4933
Method: as §1

K. pneumoniae LSI 4552 [4] = experiment: reference broth microdilution (rBMD); format: cell-based; conditions: Klebsiella pneumoniae, LSI4552
Method: as §1

K. pneumoniae LSI CT1045 [5] = experiment: reference broth microdilution (rBMD); format: cell-based; conditions: Klebsiella pneumoniae, LSICT1045
Method: as §1

P. aeruginosa ATCC 27853 [6] = conditions: CLSI M100-Ed34E; cited from earlier work
P. mirabilis LSI 4933 [7] = experiment: CytoSPAR BLAST antibiotic susceptibility test; format: cell-based
Text: (§2) The disclosed technology, which is referred to as the CytoSPAR BLAST (Bacteria Labeling Antibiotic Susceptibility Test) system, is used to quantitatively assess bacterial minimal inhibitory concentration of antibiotics for in vitro susceptibility testing. Used as an aid in diagnosis for clinicians in determining potential treatment options for patients suspected of having a microbial infection, BLAST is intended to determine susceptibility of microorganisms to the listed antibiotics (or other antimicrobials) according to manufacturer's standards. The system is intended for use with clinical isolates from liquid culture and colonies grown on agar (solid medium) or directly from urine samples. Certain implementations of BLAST determine antibiotic susceptibility for a wide range of bacteria obtained from various types of patient samples, including samples from individuals suffering from urinary tract infections. The disclosed technology includes a high-throughput assay that directly detects bacterial susceptibility to a library of frequently used antibiotics and covers both Gram-negative and Gram-positive bacteria.
(§3) The test incorporates a non-canonical amino acid (ncAA) into newly produced proteins. The incorporated ncAA includes a reactive group which allows a specific modification and detection of the living bacteria. The assay involves bacterial incorporation of the ncAA, a chemical reaction between a reactive group and a fluorophore-tagged ligand, and detection of the newly fluorescent-tagged bacteria using a fluorescent plate reader or functionally similar device. The ncAA is added to bacterial growth media and is incorporated into newly synthesized bacterial proteins. The reactive groups on the ncAA are not naturally found in bacteria and act as a specific reactive group for bacteria undergoing active protein synthesis. […] The entire process is performed in a microtiter filter plate for high-throughput scale-up. Alternatively, a normal 96-well plate can also be used in which case centrifugation is used to wash the plate instead of filtration.
(§4) In an example embodiment, bacterial samples are first diluted and incubated in acclimatization media. After treatment with one or more antimicrobials, the ncAA is added and is taken up by living bacteria during protein biosynthesis in a process called labeling. […] The Click-Chemistry reaction between the alkyne group of the ncAA and the azide group of the fluorophore-tagged ligand requires the presence of copper in the reduced state-copper (I). In other implementations, the functional groups of the click chemistry reaction can be changed so that the ncAA has the azide group and the dye has the alkyne group. […] Other reducing agents may be used in the BLAST assay, for example, aldoses (sugars) including glyceraldehyde, glucose, and ribose to replace sodium ascorbate. Likewise, alternate chelators may be used (e.g., histidine in place of BTTAA). In some implementations, metal-free click chemistry reactions are performed without using copper.
(§5) Using the BLAST system, tests can be performed on isolates or direct urine samples. Isolates may be from urine, blood, or other body fluids. Isolated bacteria may be either Gram-positive or Gram-negative. In an example implementation, living bacterial samples in acclimatization media (Buffer A) are distributed in a microtiter filter plate, wherein certain predetermined wells include antibiotics of interest at different concentrations. These antibiotics are arrayed with increasing concentrations in adjacent wells so that the bacterial response can be measured against each specific concentration. The response is measured quantitatively, and a value that corresponds to the ability of the bacteria to metabolize and grow is measured.

P. mirabilis LSI 4698 = experiment: CytoSPAR BLAST antibiotic susceptibility test; format: cell-based
Text: as §2, §3, §4, §5

E. coli ATCC 25922 [8] = experiment: CytoSPAR BLAST antibiotic susceptibility test; format: cell-based; conditions: for MIC: Escherichia coli; for S, I, R: susceptible, intermediate, resistant category
Text: as §2, §3, §4, §5

K. pneumoniae LSI 4552 [9] = experiment: CytoSPAR BLAST antibiotic susceptibility test; format: cell-based
Text: as §2, §3, §4, §5

E. coli LSI 770 = experiment: CytoSPAR BLAST antibiotic susceptibility test; format: cell-based; conditions: E. coli LSI 770; for MIC: Escherichia coli, LSI770
Text: as §2, §3, §4, §5

K. pneumoniae LSI CT1045 [10] = experiment: CytoSPAR BLAST antibiotic susceptibility test; format: cell-based
Text: as §2, §3, §4, §5

S. aureus ATCC 29213 [11] = experiment: CytoSPAR BLAST antibiotic susceptibility test; format: cell-based; conditions: for S, I, R: susceptible, intermediate, resistant category; for MIC: Staphylococcus aureus
Text: as §2, §3, §4, §5

P. aeruginosa ATCC 27853 [12] = experiment: CytoSPAR BLAST antibiotic susceptibility test; format: cell-based; conditions: for S, I, R: susceptible, intermediate, resistant category
Text: as §2, §3, §4, §5

E. coli = conditions: cited from earlier work
[13] = test system: E. coli, S. saprophyticus and S. aureus; conditions: for E. coli, S. saprophyticus and S. aureus as reported by the FDA and CLSI (Table 5); cited from earlier work
E. coli ATCC 25922 [14] = conditions: E. coli strain #25922 (ATCC); strain designation, not a BLAST readout; cited from earlier work
E. coli strain #14 (CDC) [15] = conditions: strain designation, not a BLAST readout; cited from earlier work
[16] = test system: E. coli strain #551 (CDC); experiment: microbe, parasite or virus in culture; conditions: Escherichia coli, read-out: BLAST MIC, E. coli resistant strain (CDC 551); […]10^8 CFUs/mL; cut-off 0.7; FIG. 11C
Text: (§6) The disclosed technology, which is referred to as the CytoSPAR BLAST (Bacteria Labeling Antibiotic Susceptibility Test) system, is used to quantitatively assess bacterial minimal inhibitory concentration of antibiotics for in vitro susceptibility testing. Used as an aid in diagnosis for clinicians in determining potential treatment options for patients suspected of having a microbial infection, BLAST is intended to determine susceptibility of microorganisms to the listed antibiotics (or other antimicrobials) according to manufacturer's standards. The system is intended for use with clinical isolates from liquid culture and colonies grown on agar (solid medium) or directly from urine samples. […]
(§7) The test incorporates a non-canonical amino acid (ncAA) into newly produced proteins. […] The assay involves bacterial incorporation of the ncAA, a chemical reaction between a reactive group and a fluorophore-tagged ligand, and detection of the newly fluorescent-tagged bacteria using a fluorescent plate reader or functionally similar device. […]
(§8) Using the BLAST system, tests can be performed on isolates or direct urine samples. […] These antibiotics are arrayed with increasing concentrations in adjacent wells so that the bacterial response can be measured against each specific concentration. […]

E. coli strain #14 (CDC) [17] = experiment: microbe, parasite or virus in culture; conditions: Escherichia coli, read-out: BLAST MIC
Text: as §6, §7, §8

[18] = test system: E. coli strain #551 (CDC); conditions: strain designation, not a BLAST readout; cited from earlier work
S. saprophyticus = conditions: cited from earlier work
[19] = susceptible, intermediate, resistant category

## C[C@H]1COc2c(N3CCN(C)CC3)c(F)cc3c(=O)c(C(=O)O)cn1c23 [Levofloxacin, levofloxacin]
E. coli ATCC 25922 [1]
  MIC: 0.02 µg/mL (≈ 0.0553 µM)
S. aureus ATCC 29213 [2]; listed as levofloxacin
  MIC CLSI QC Range: 0.063 to 0.5 µg/mL
S. aureus ATCC 29213 [2]
  MIC CLSI QC Range: 0.06 to 0.5 µg/mL
P. mirabilis LSI 4933 [3]
  MIC: 1 µg/mL (≈ 2.77 µM)
K. pneumoniae LSI 4552 [4]
  MIC: 0.12 µg/mL (≈ 0.332 µM)
K. pneumoniae LSI CT1045 [5]
  MIC: 128 µg/mL (≈ 354 µM)
P. aeruginosa ATCC 27853 [6]
  MIC CLSI QC Range: 0.5 to 4.0 µg/mL
P. mirabilis LSI 4933 [7]; Proteus mirabilis, LSI4933, Table 7
  MIC: 1.1 µg/mL (≈ 3.04 µM)
P. mirabilis LSI 4933 [7]; [19]
  S, I, R: Susceptible
P. mirabilis LSI 4698; Proteus mirabilis, LSI4698, Table 7
  MIC: 8.9 µg/mL (≈ 24.6 µM)
P. mirabilis LSI 4698; [19]
  S, I, R: Susceptible
E. coli ATCC 25922 [8]; ATCC25922, Table 7, read-out: MIC BLAST
  MIC: 0.01 µg/mL (≈ 0.0277 µM)
E. coli ATCC 25922 [8]; ATCC25922, read-out: MIC BLAST Isolates, Table 8, isolates, 5 × 10^5 CFU/mL
  MIC: 0.01 µg/mL (≈ 0.0277 µM)
E. coli ATCC 25922 [8]; ATCC25922, read-out: MIC BLAST Spiked Urine, Table 8, spiked urine sample, 5 × 10^5 CFU/mL
  MIC: 0.01 µg/mL (≈ 0.0277 µM)
E. coli ATCC 25922 [8]
  S, I, R: Susceptible
K. pneumoniae LSI 4552 [9]; Klebsiella pneumoniae, LSI4552, Table 7
  MIC: 0.06 µg/mL (≈ 0.166 µM)
K. pneumoniae LSI 4552 [9]; [19]
  S, I, R: Susceptible
E. coli LSI 770; [19]
  S, I, R: Resistant
E. coli LSI 770; Table 7, read-out: MIC BLAST
  MIC: 36 µg/mL (≈ 99.6 µM)
E. coli LSI 770; Table 8, isolates, 5 × 10^5 CFU/mL, read-out: MIC BLAST Isolates
  MIC: 35.6 µg/mL (≈ 98.5 µM)
E. coli LSI 770; Table 8, spiked urine sample, 5 × 10^5 CFU/mL, read-out: MIC BLAST Spiked Urine
  MIC: 35.6 µg/mL (≈ 98.5 µM)
K. pneumoniae LSI CT1045 [10]; Klebsiella pneumoniae, LSICT1045, Table 7
  MIC: > 71 µg/mL
K. pneumoniae LSI CT1045 [10]; [19]
  S, I, R: Resistant
S. aureus ATCC 29213 [11]; S. aureus ATCC 29213
  S, I, R: Susceptible
S. aureus ATCC 29213 [11]; ATCC29213, S. aureus ATCC 29213, 5×10^6 CFUs/mL, cutoff 0.8, FIGS. 19-21, read-out: BLAST MIC
  MIC: 0.125 µg/mL (≈ 0.346 µM)
S. aureus ATCC 29213 [11]; ATCC29213, Table 7, S. aureus ATCC 29213, read-out: MIC BLAST
  MIC: 0.28 µg/mL (≈ 0.775 µM)
S. aureus ATCC 29213 [11]; ATCC29213, Table 8, S. aureus ATCC 29213, isolates, 5 × 10^5 CFU/mL, read-out: MIC BLAST Isolates
  MIC: 0.28 µg/mL (≈ 0.775 µM)
S. aureus ATCC 29213 [11]; ATCC29213, Table 8, S. aureus ATCC 29213, spiked urine sample, 5 × 10^5 CFU/mL, read-out: MIC BLAST Spiked Urine
  MIC: 0.28 µg/mL (≈ 0.775 µM)
P. aeruginosa ATCC 27853 [12]; Pseudomonas aeruginosa, ATCC27853, Table 6, optimized BLAST
  MIC: 8 µg/mL (≈ 22.1 µM)
P. aeruginosa ATCC 27853 [12]
  S, I, R: Susceptible
E. coli; stated with the CLSI QC range in FIG. 22 legend
  breakpoint: 0.5 µg/mL

## O=C1CN(/N=C/c2ccc([N+](=O)[O-])o2)C(=O)N1 [Nitrofurantoin, nitrofurantoin]
[13]
  CLSI QC range: 4 to 16 µg/mL
E. coli ATCC 25922 [14]
  susceptibility of the strain as listed: Susceptible
E. coli strain #14 (CDC) [15]
  susceptibility of the strain as listed: Intermediate resistance
[16]
  MIC: 32 µg/mL (≈ 134 µM)
E. coli strain #14 (CDC) [17]
  MIC: 32 µg/mL (≈ 134 µM)
[18]
  susceptibility of the strain as listed: Resistant
S. saprophyticus; intermediate
  CLSI breakpoint I: 64 µg/mL
  FDA breakpoint I: 64 µg/mL
S. saprophyticus; susceptible
  CLSI breakpoint S: 32 µg/mL
  FDA breakpoint S: 32 µg/mL
E. coli ATCC 25922 [8]
  S, I, R: Susceptible
S. aureus ATCC 29213 [11]; S. aureus ATCC 29213
  S, I, R: Susceptible
S. aureus ATCC 29213 [11]; ATCC29213, S. aureus ATCC 29213, 5×10^5 CFUs/mL, FIG. 15, read-out: BLAST MIC
  MIC: 4 µg/mL (≈ 16.8 µM)
S. aureus ATCC 29213 [11]; ATCC29213, Table 6, S. aureus ATCC 29213, optimized BLAST, cutoff 0.8, read-out: MIC BLAST
  MIC: 4 µg/mL (≈ 16.8 µM)
P. aeruginosa ATCC 27853 [12]
  S, I, R: Resistant
E. coli; intermediate
  CLSI breakpoint I: 64 µg/mL
  FDA breakpoint I: 64 µg/mL
E. coli; susceptible
  CLSI breakpoint S: 32 µg/mL
  FDA breakpoint S: 32 µg/mL
